Values belong to the molecule of their own block, whether it stands above or below them.
Legend:
solubility in solvents = format: physicochemical
From the text: PX-18, a specific inhibitor of sPLA2, is a fatty moiety feat is soluble in methylene chloride, chloroform and ethyl acetate. […] Its solubility in water is typically very low.

[1] = system: hippocampus neurons after ischemia; assay: common carotid artery occlusion, alive hippocampal neurons; format: in vivo, Gerbils; settings: 1% nanoparticle formulation, 40-50 nm, subcutaneously 5 min, 24 hr and 48 hr after ischemia, day 4
Experimental: Common carotid arteries of Gerbils (6 gerbils per group) were occluded for 5 minutes to induce ischemia. Thereafter, a nanoparticle formulation of PX-18 (1% formulation, particles size of 40-50 nanometers) was administered subcutaneously 5 min, 24 hr and 48 hr after ischemia. After surgery, the gerbils were returned to their cages where, upon awakening, they were able to resume their normal locomotor functions. They were sacrificed on day 4. The hippocampus was sectioned and the number of alive neurons was assessed. In the ischemic animals, sPLA2 unregulated within 24 hr after ischemia and most neurons were dead by 4 days. PX-18 reduced neuronal damage in a dose dependent manner, providing approximately 30% protection at a dose of 30 mg/kg and 45% protection at a dose of 60 mg/kg, […]

[2] = system: ischemia-reperfusion in the heart; assay: infarct size after regional ischemia/reperfusion in the heart; format: in vivo, Rabbits; settings: PX-18 60 mg/kg ip; P<0.05
Experimental: The protective effect of PX-18 during ischemia-reperfusion in the heart was assessed. Since opening of mitochondrial KATP channels are essential components of ischemic tolerance induced by preconditioning in heart, the role of these channels in PX-18-induced cardioprotection was also examined. Briefly, 180 mg of PX-18 was put into a small homogenizing tube containing 3 ml of ethylene glycol in a homogenizing tube and warming it to about 50° C. Several bursts of sonication (about 10 seconds) were applied in a nitrogen gas bath to minimize oxidation, followed by homogenization. This procedure was repeated 4-5 times until a uniform cloudy proportion that was easily injected through a needle was obtained. Procedures of this type generate PX-18 particles of a size in the micrometer range. Rabbits were treated with the sonicated preparation, of PX-18 (60 mg/kg ip). 30 minutes later the hearts were subjected to 30 minutes of regional ischemia followed by 3 hours of reperfusion. Mitochondrial KATP channel blocker 5-hydroxydecanoate (5-HD, 5 mg/kg iv) was given 10 min before ischemia/reperfusion. Infarct size was measured by computer morphometry of tetrazolium stained sections.

[3] = dissolution velocity: amount suspended in water after 5 minutes (gravimetry); format: physicochemical
Experimental: 1 ml of macrosuspension (PX powder, dispersed in water) and 1 ml of PX-18 nanosuspension (diameter 40 nm) was added to 9 ml of de-mineralised water and stirred with a magnetic stirrer for 5 minutes. Each 10 ml sample was then filtered to remove non-suspended PX-18, and the amount of suspended PX-18 was determined by gravimetry. While the concentration of PX-18 in both suspensions was 1% (w/w), about 91% of the nanoparticles had become suspended within 5 minutes compared to just 8.4% of the macrosuspension.
To farther assess the importance of nanoparticle size on the dissolution velocity of PX-18, the dissolution velocity of PX-18 nanoparticles with a size of 40 nm was compared to that of PX-18 nanoparticles with a size of 200 nm. The analysis was performed as described above. After 5 minutes, about 91% of the 40 nm particles were suspended, whereas die larger 200 nm nanoparticles were suspended to about 41%.

[4] = system: ischemia-induced impaired vasodilation; assay: ischemia-induced impaired vasodilation; format: in vivo, newborn piglets; settings: for effect on impaired hypercapnic vasodilation after global ischemia: FIG. 11
Experimental: (§1) The ability of PX-18 nanoparticles to influence 1) basal and induced arterial dilation; and 2) ischemia-induced impaired vasodilation (due to bradykinin, N-methyl-D-aspartic acid (NMDA) and ischemia-reperfusion) was studied in newborn piglets (1-2-day old, n=44). The piglets were anesthetized, ventilated, and equipped with arterial and venous catheters and a closed cranial window. Xanoparticulate PX-18 was administered iv at a concentration of 6 mg/kg.
The protocol for testing the effect of ischemia-induced impaired vasodilation is preseted in FIG. 8. […] In addition, intravenous but not topical treatment with PX-18 restored impaired hypercapnic vasodilation after global ischemia (FIG. 11).

[5] = solubility in aqueous solutions; format: physicochemical
From the text: Despite the apparent efficacy of PX compounds in treating various disease conditions, their use is limited due to a problem of extremely low solubility. […] This very poor solubility generally leads to insufficient bioavailability alter administration, likely because the dissolution velocity is too slow.

Rabbits = settings: rabbit, in vivo, iv
pial arterioles = assay: basal and induced pial arteriolar dilation and hemodynamics; format: in vivo, newborn piglets
Experimental: as §1

[6] = particle size after high pressure homogenization (photon correlation spectroscopy); format: physicochemical
Experimental: PX-18 powder was dispersed in a 1% Tween 80 carrier. The composition of the formulation was 1% PX-18, 1% Tween 80 and 98% water. The obtained macrosuspension was passed through a micron LAB 40 homogenizer (APV Homogenizer Systems, Unna/Germany) at 1500 bar, applying one homogenization cycle. The particle size was determined by photon correlation spectroscopy (PCS, Malvern Zetasizer Nano ZS, Malvern Instruments, United Kingdom), The mean particle size (z-average) was 745 nm.
A second macrosuspension of PX-18 was prepared as described above, and subsequently homogenized. The homogenization parameters were 1500 bar and 20 homogenization cycles.
A suspension of 1% PX-13 was prepared in an aqueous preparation of 2% Planta Care 2000. After homogenization applying 20 cycles at 1500 bar, a PCS mean diameter of 33 nm was obtained.

Compound: CCCCCCCC/C=C\CCCCCCCC(=O)OCCN(CCOC(=O)CCCCCCC/C=C\CCCCCCCC)CCS(=O)(=O)O [PX-18]
solubility (solubility in solvents; in acetone and methanol): insoluble
solubility (solubility in solvents; in dimethylsulfoxide (DMSO)): limited solubility
solubility (solubility in solvents; in methylene chloride, chloroform and ethyl acetate): soluble
solubility (solubility in solvents; in water): very low
protection against neuronal damage ([1]; 30 mg/kg): approximately 30%
protection against neuronal damage ([1]; 60 mg/kg): ~45%
reduction of infarct size versus vehicle [2]: 43%
amount suspended ([3]; macrosuspension (powder, μm-sized particles), 1% (w/w), 1 ml in 9 ml de-mineralised water, stirred 5 minutes): 8.4%
amount suspended ([3]; nanoparticles with a size of 200 nm, after 5 minutes): about 41%
effect on impaired hypercapnic vasodilation after global ischemia ([4]; intravenous treatment): restored
effect on ischemia-induced impaired vasodilation caused by N-methyl-D-aspartic acid ([4]; iv administered, NMDA 10^−4M, FIG. 10): counteracts
effect on ischemia-induced impaired vasodilation caused by bradykinin ([4]; iv administered, bradykinin 10^−8M, FIG. 9): counteracts
effect on impaired hypercapnic vasodilation after global ischemia ([4]; topical treatment): not topical
solubility in aqueous solutions [5]: approximately 24 μg/ml
survival (Rabbits): did not survive
time to normalization of MABP and pial arteriole diameter (pial arterioles; after iv bolus, 6 mg/kg): 4 to 6 min
effect on basal and hypercapnia-induced (endothelium and COX dependent) pial arterial dilation (pial arterioles; intravenous, FIG. 6): did not influence
pial arteriole dilation (pial arterioles; iv bolus of nanoparticle formulation, 6 mg/kg, transient): 32±1%
mean arterial blood pressure (MABP) after bolus (pial arterioles; iv bolus of nanoparticle formulation, 6 mg/kg, transient decrease from 62±7 mmHg): 40±5 mmHg
pial arteriole dilation (Mean±SEM) (pial arterioles; nanoparticle formulation, 10^−4M, topically onto the brain surface): 16±5%
effect on PACAP induced (non-endothelium but COX-dependent) pial arteriolar dilation (pial arterioles; topical, FIG. 7): impaired

solubility in aqueous solutions [5]: about 5 μg/ml
PCS mean diameter ([6]; 1% PX-13 in aqueous 2% Planta Care 2000, 20 cycles at 1500 bar): 33 nm
particle size (PCS, z-average) ([6]; one homogenization cycle at 1500 bar): 400-900 nm
Compound: CCCCCCCC/C=C\CCCCCCCC(=O)OCC(COC(=O)CCCCCCC/C=C\CCCCCCCC)(COC(=O)CCCCCCC/C=C\CCCCCCCC)NCCS(=O)(=O)O [PX-13]

Source: patent US20110097410A1, “FORMULATIONS OF PX COMPOUNDS” (priority 2007, published 2011)
